In article PMC5371824, “Phosphatidylinositol (4,5)-bisphosphate dynamically regulates the K2P background K^+ channel TASK-2” (Scientific Reports, 2017):
Positions count from the first letter of the chain named.

How the values were obtained:
TASK-2-R438C = assay: Excised inside-out patch recording, TASK-2-R438C mutant; assay type: biochemical, Mus musculus; design: key to MTSET effect: ✓ under “MTSET effect” indicates a significant increase in current after treatment with the methanesulfonate reagent; — in all cases stands for no significant effect
Description: (§1) Mus musculus TASK-2 (GenBank accession No. AF319542) plasmid was that obtained from mouse kidney. The cDNAs was subcloned into the pCR3.1 vector. Mutations were made by site-directed mutagenesis into the pCR3.1 vector as previously described[69] and confirmed by sequencing. HEK-293 cells were cultured in Dulbecco’s modified Eagle’s medium (DMEM) and F12 Ham’s medium at a 1:1 ratio and supplemented with 10% fetal calf serum at 37 °C in 5% CO2. For electrophysiological experiments, transient transfections were performed by electroporation, using CD8 cotransfection to identify effectively transfected cells. […] Experiments were performed 4–8 h after electroporation. In experiments with the voltage-sensitive phosphatase TASK-2 or its mutants were co-electroporated with a pCR3.1-DrVSP-IRES-CD8 vector.
Recordings in the inside-out isolated patch configuration were performed in the gap-free mode at −60 mV. The inside aspect of the patch was bathed with a solution containing in mM: 10 KCl, 10 Glucose, 1 MgCl2, 10 EGTA, 1 Na3ATP, 0.1 GTP, 6.8 g/100 ml Sucrose, 10 Hepes/Tris, pH 7.4. The pipette contained in mM: 140 KCl, 10 Glucose, 6.8 g/100 ml Sucrose, 10 Hepes/Tris pH 7.4. For isolated patches, borosilicate capillaries (Harvard Apparatus GC150F-10 1.5 ODx0.86 ID) were fire polished to 4–5 MΩ and covered in beeswax. Acquisition was at 10 kHz with filter at 3 kHz (4-pole Bessel) and analysis was done with Clampfit 9.0 (Axon Instruments, Foster City, CA, USA). Traces shown are prints from crude Clampfit screen shots and quantification was done using the average currents were calculated at intervals using Clampfit after baseline adjustment.
Fig. S7. Concentration ependence for the inhibition of TASK-2 mutant R438C by
intracellular neomycin. Recording were obtained from excised inside-out patches of
membrane taken from a HEK-293 cells over-expressing TASK-2-R438C. The patches were
held at -60 mV in the presence of 1 mM intracellular ATP. Neomycin was increased
stepwise from 5 to 500 µM in the solution bathing the intracellular aspect of the membrane. […]

TASK-2-K297C = target: T1, TASK-2-K297C (Mus musculus, UniProt F6V9U5, K297C); assay: Excised inside-out patch recording, TASK-2-K297C mutant; assay type: biochemical; design: key to MTSET effect: ✓ under “MTSET effect” indicates a significant increase in current after treatment with the methanesulfonate reagent; — in all cases stands for no significant effect
T1 construct: expressed in transfected cells; host or cells: HEK-293
T1 sequence (F6V9U5 1-502 K297C): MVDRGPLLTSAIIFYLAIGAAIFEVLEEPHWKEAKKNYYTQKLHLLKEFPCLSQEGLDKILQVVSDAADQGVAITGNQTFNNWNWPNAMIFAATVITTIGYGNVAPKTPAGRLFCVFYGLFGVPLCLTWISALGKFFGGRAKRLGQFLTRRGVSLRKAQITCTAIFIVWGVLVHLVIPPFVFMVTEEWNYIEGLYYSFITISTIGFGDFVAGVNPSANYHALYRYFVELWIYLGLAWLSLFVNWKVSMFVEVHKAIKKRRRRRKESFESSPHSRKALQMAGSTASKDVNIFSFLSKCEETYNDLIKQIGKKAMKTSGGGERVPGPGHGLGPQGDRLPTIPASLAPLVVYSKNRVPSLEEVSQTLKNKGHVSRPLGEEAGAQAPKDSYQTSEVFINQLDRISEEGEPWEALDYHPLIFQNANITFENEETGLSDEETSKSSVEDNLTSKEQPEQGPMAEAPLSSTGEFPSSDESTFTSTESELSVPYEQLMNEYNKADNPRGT
Description: (§2) Figure 6 Scanning of potential sites of interaction of TASK-2 with PI(4,5)P2 by cysteine mutagenesis of intracellular basic residues. (A) Schematic representation of TASK-2 topology showing the sequences of segments of the protein predicted to be intracellular or intracellular-facing. Basic residues are highlighted in red. (B) Recording from an excised inside-out patch of membrane taken from a HEK-293 cell over-expressing TASK-2. The patch was held at −60 mV in the presence of 1 mM ATP. At the intervals indicated by the boxes the intracellular aspect of the membrane was exposed to 300 μM Neomycin and then to 100 μM TPeA. At the end of the TPeA period the patch was additionally exposed to 1 mM MTSET as shown by the black box. (C and D) experiments as in (B), but with inside-out membrane patches obtained from cells expressing the mutants TASK-2-H327C and TASK-2-K297C respectively. In D the reducing agent DTT was also added at 2 mM. (E) Summary of experiments comparing the current before and after treatment with MTSET.
as §1, with “In experiments with the voltage-sensitive phosphatase TASK-2 or its mutants were co-electroporated with a pCR3.1-DrVSP-IRES-CD8 vector.” left out
(§3) Recordings in the inside-out isolated patch configuration were performed in the gap-free mode at −60 mV. […] Traces shown are prints from crude Clampfit screen shots and quantification was done using the average currents were calculated at intervals using Clampfit after baseline adjustment.

TASK-2-H327C = target: T2, TASK-2-H327C (Mus musculus, UniProt F6V9U5, H327C); assay: Excised inside-out patch recording, TASK-2-H327C mutant; assay type: biochemical; conditions: 1 mM, brief intracellular exposure in the presence of TPeA
T2 construct: expressed in transfected cells; host or cells: HEK-293
T2 sequence (F6V9U5 1-502 H327C): T1 sequence (F6V9U5 1-502 K297C) with C297K, H327C
Description: as §2, with “MTSET. […]” for “MTSET.”
as §3

[1] = 1 mM, in the presence of TPeA, inside-out patch

Effect of MTSET on TASK-2-K297C activity (TASK-2-K297C; [1]): markedly enhanced | MTSET effect (TASK-2-K297C; mutation K297C): ✓
SMILES: C[N+](C)(C)CCSS(C)(=O)=O.[Cl-] [MTSET, [2-(trimethylammonium)ethyl] methanethiosulfonate chloride]
Effect of MTSET on TASK-2-R438C activity (TASK-2-R438C; [1]): not affected | MTSET effect (TASK-2-R438C; mutation R438C): — | Effect of MTSET on TASK-2-H327C channel activity (TASK-2-H327C): Neither WT nor H327C channel activity is affected
